For data set [1] the following is noted: the highest pKa value at 25 °C; ref 42 and references of Table S2; cited from earlier work.
For data set [2] the following is noted: monkeys, PTM suspension in 0.5% sodium carboxymethyl cellulose; cited from earlier work.
For data set [3] the following is noted: rats, PTM with hydroxypropyl-β-cyclodextrin; cited from earlier work.
A short description of data set [4]: physchem. The settings on record: kinetic from dmso stock.
Test in data set [5]: not given
The source holds these as a separate data set.

The conditions of data set [6]: guinea pig, in vivo; cited from earlier work.
For data set [7] the following is noted: cited from earlier work.
The nature of data set [8]: physchem.
The conditions of data set [9]: humans, 200 mg PTM with high-calorie, high-fat meal; cited from earlier work.
The nature of data set [10]: Drug nucleation induction time (UV extinction at 440 nm). The settings on record: for induction time at 160 μg/mL: no polymer, 37 °C. The format is physicochemical.
The nature of data set [11]: Glass transition temperature by DSC. The format is physicochemical. The settings on record: for reduced glass transition temperature (Tg/Tm): calculated as Tg/Tm. How it is done:
The glass transition temperature (Tg) of ASD samples was measured by a TA Q2000 differential scanning calorimeter (DSC) equipped with an RCS90 refrigeration unit (TA Instruments, New Castle, DE). The temperature calibration was performed using indium and tin, while enthalpy calibration was conducted with indium. The samples (5–10 mg) were added to aluminum pans with a pinhole lid (Tzero pan, TA Instrument, DE). The sample was equilibrated at −20 °C and heated from −20 to 210 °C at 5 °C/min then cooled back down to −20 °C at 10 °C/min under a nitrogen flow of 50 mL/min. The heating and cooling cycle was repeated three times to remove residual solvent and thermal history, and the last cycle was used for analysis.

Values after ≈ are worked out from the molar mass of the structure shown. Values joined by “and” are separate entries in the source; they are usually repeats but may differ in a detail not shown here. Equal values may be shown once. Read-outs that look alike come from different tables or passages of the source. Some results are limits rather than exact numbers.

In general, pKa refers to the negative logarithm of the acid dissociation constant. What is called solubility is how much of the substance goes into solution per volume. Read a high solubility as a readily soluble substance. By thermodynamic solubility is commonly meant the concentration in solution at equilibrium with solid.

Take `CN(C)CCO` [2-Dimethylaminoethanol]: the pKa in [1] was 9.23.

For the molecule `O=[N+]([O-])c1cn2c(n1)OC[C@@H](OCc1ccc(OC(F)(F)F)cc1)C2` [PTM, Pretomanid], the “A/C ratio (amorphous/crystalline solubility ratio)” value runs as follows: (HCl solution (pH 1.6)) 9.3; (phosphate buffer (pH 3.0)) 8.1; (phosphate buffer (pH 5.0)) 9.5; (phosphate buffer (pH 6.5)) 10.2. Where the note is “buffer solutions, overall”, the “amorphous/crystalline solubility (A/C) ratio” value is recorded as 8–10. In addition, the mean oral bioavailability in [2] was 19%; in data set [3], 52%. Besides, the solubility was 0.141 ± 0.0037 mg/mL (≈ 392 µM) in the data set “physchem [4]” (pH 1.6, simulated gastric fluid); 0.143 ± 0.0024 mg/mL (≈ 399 µM) in the data set “physchem [4]” (pH 3, aqueous buffer); 0.16 ± 0.0057 mg/mL (≈ 444 µM) in “physchem [4]” (pH 5, aqueous buffer); 0.166 ± 0.0062 mg/mL (≈ 462 µM) in “physchem [4]” (pH 6.5, aqueous buffer); 0.308 ± 0.012 mg/mL (≈ 857 µM) in “physchem [4]” (pH 6.5, fassif); 0.0152 ± 0.0014 mg/mL (≈ 42.3 µM) in “physchem [8]” (37 °C, pH 1.6, simulated gastric fluid, thermodynamic from solid). In addition, the solubility in “physchem [8]” (37 °C, pH 3, aqueous buffer, thermodynamic from solid) was found to be 0.0178 ± 0.0003 mg/mL (≈ 49.5 µM); in the data set “physchem [8]” (37 °C, pH 5, aqueous buffer, thermodynamic from solid), 0.0168 ± 0.0001 mg/mL (≈ 46.8 µM); in the data set “physchem [8]” (37 °C, pH 5.8, aqueous buffer, thermodynamic from solid), 0.017 ± 0.0003 mg/mL (≈ 47.3 µM); in “physchem [8]” (37 °C, pH 5.8, fessif, thermodynamic from solid) it was 0.1081 ± 0.0001 mg/mL (≈ 301 µM); in “physchem [8]” (37 °C, pH 6.5, aqueous buffer, thermodynamic from solid), 0.0162 ± 0.0014 mg/mL (≈ 45.1 µM); in “physchem [8]” (37 °C, pH 6.5, fassif, thermodynamic from solid), 0.0538 ± 0.004 mg/mL (≈ 150 µM). Also, the solubility in “physchem [8]” (pH 5.8) was approximately 0.11 mg/mL (≈ 306 µM). For the same molecule, the “factor of increase of equilibrium solubility” value in data set [5] (pH 5.8) is on record as approximately 6; in data set [5] (pH 6.5), approximately 3. For the same molecule, the systemic exposure in data set [6] was 6.7–13.5%. Besides, the water solubility in data set [7] is 0.01 to 0.02 mg/mL. The molecule further returned a thermodynamic solubility in “physchem [8]” of 0.015 to 0.018 mg/mL (≈ 41.8 to 50.1 µM). Further, the “increase in AUC0-inf with food” value in data set [9] is given as 88%. Also, the “increase in Cmax with food” value in [9] is given as 76%. Besides, the induction time is 77.6 ± 13.6 min and ~77 min in [10]; approximately 22 min in [10] (PTM 80 μg/mL, PB (pH 6.5), 100 μg/mL HPMC). Moreover, the “induction time at 160 μg/mL” value was 0.9 ± 0.3 min in data set [10] (FaSSIF V1 (pH 6.5)); 1.6 ± 0.2 min in data set [10] (HCl solution (pH 1.6)); 1.3 ± 0.1 min in [10] (phosphate buffer (pH 3.0)); 1.6 ± 0.2 min in data set [10] (phosphate buffer (pH 5.0)); 1.4 ± 0.2 min in data set [10] (phosphate buffer (pH 6.5)). Further, in [10] (media of Table 2, no polymer), the “nucleation induction time in solution” value is listed as “less than 2 min”. Further, the “induction time (no crystallization observed up to)” value in data set [10] (pH 6.5) is on record as more than 1000 min. In data set [11], the “reduced glass transition temperature (Tg/Tm)” value was 0.67. Also, the “Tg (glass transition temperature)” value in data set [11] (neat drug) was found to be 10 °C.

`C[C@]1(COc2ccc(N3CCC(Oc4ccc(OC(F)(F)F)cc4)CC3)cc2)Cn2cc([N+](=O)[O-])nc2O1` [delamanid]: the “Tg (glass transition temperature)” value in data set [7] (neat drug) is approximately 43 °C. Moreover, the “reduced glass transition temperature (Tg/Tm)” value in data set [11] was 0.64.
